The target in one series is T1, ATP-1 (Caenorhabditis elegans, UniProt Q9XXK1).
T1 construct: His; made in house; host or cells: E. coli (given only for the three ATP-1 segments)
Kind of series: Iron-binding assay: 55FeCl3 +/- siderophore in worm lysates, ATP-1 immunoprecipitation. On the set-up: species or system C. elegans. The method, then:
The present inventors added radiolabeled iron (55FeCl3) to worm lysates and then immunoprecipitated ATP-1.
In vitro binding assay. (a) Ent-biotin pull-down of total proteins: Ent-biotin and streptavidin beads were used to pull down interacting proteins from worm total protein extracts (same method as that in initial screen for Ent-binding proteins). Western blots were performed to detect ATP-1 (Thermo Fisher 43-9800). […] The assay was then quenched with a standard 5×SDS-PAGE_loading buffer (reducing). Proteins were separated by SDS-PAGE and transferred to_nitrocellulose membranes. The membranes were blocked for 1 h with 5% BSA in Trisbuffered saline (TBS) with 0.1% Tween 20 (TBST) at room temperature, followed by incubation for 1 h with horseradish peroxidase streptavidin (Cell Signaling_Technology,3999S) in TBST. After four washes with changes every 15 min in TBST, the_biotinylated proteins were visualized by enhanced chemiluminescence (GE Healthcare,_RPN2232). […] After IP, the amount of 55Fe was determined by liquid scintillation.

Series [1] relates to C. elegans smf-3/DMT1 mutant. Kind of series: Growth of iron-deficient C. elegans smf-3/DMT1(-) mutant with iron chelator 2,2'-bipyridyl. The series is classed as in vivo. How it is done: FIG. 26. […] All tests were done on a smf-3/DMT1(-) mutant strain in a culture media where an iron chelator (2,2′-bipyridyl) was added to reduce the environmental iron level (FIG. 26A). […] This growth delay was rescued by supplementation with Ent, scored as the percentage of the population at the indicated growth stage. […] The entP,fepA: E. coli mutant cannot synthesize or utilize Enterobactin.
SMF-3/DMT1 is a conserved divalent metal transporter that transports iron into intestinal cells. The smf-3/DMT1 mutant has been established as an iron deficiency model in C. elegans. These mutants have defective iron uptake that results in iron deficiency (Romney et al 2011) and delayed growth under iron-poor growth conditions created by addition of an iron chelator (2,2′-bipyridyl) to the culture media (Raj an et al 2019).
To determine if the Enterobactin supplementation was benefiting the worm directly or benefiting the worm through an E. coli-dependent mechanism, the test was repeated using an E. coli double mutant that cannot synthesize or utilize Ent (entP,fepk).

For series [2], the system named is murine intestinal epithelial (MODE-K) cells. Kind of series: Cellular iron level by Calcein AM fluorescence in MODE-K cells +/- DFO. The class given is cell-based, mouse. How it is done: The present inventors then created a low-iron condition by adding an iron chelator, Deferoxamine (DFO) to the medium (FIG. 18A). […] The assay was also performed using mouse intestinal epithelial (MODE-K) cells.

The next series addresses T2, ATP5A1 (Homo sapiens, UniProt P25705).
T2 construct: His
Kind of series: 55FeCl3 +/- Ent in HEK293T cell lysates, ATP5A1 immunoprecipitation. The class given is binding.

Series [3] concerns HEK293T cells. Kind of series: Mitochondrial iron level by fluorescent indicator RPA. The class given is cell-based, human. From the text: Moreover, using siRNA knockdown (FIG. 13A), the present inventors observed that this Ent-mediated increase depended on ATP5A1 (FIG. 6E, F) in a similar manner as that in the assays for C. elegans (FIG. 5A, D). The present inventors also measured the mitochondrial iron level in cells by using the fluorescent mitochondrial iron indicator, RPA, to which iron binding quenches its fluorescence. […] The relatively smaller changes seen for cultured cells, compared to the difference in worms fed heat-killed food (FIG. 2), may potentially be due to the higher base iron level under the cell culturing condition.
Mitochondrial iron measurement in mammalian cells. The mitochondrial iron pools were determined as described (Mena et al., 2015). Briefly, cells were loaded for 20 min at 37 ° C. with 2 uM of the mitochondrial iron chelator rhodamine B-[(1,10-phenanthrolin-5-yl) aminocarbonyl]benzyl ester (RPA). After washing, the cells were imaged by fluorescence microscopy.

In series [4] the test system is HEK293T cells. Nature of the series: CAS staining of siderophore level in HEK293T cells. The series is classed as cell-based, human. Conditions: Ent supplemented to the culture medium.

Data on one compound can be found in US20210187014A1 (The Regents of the University of Colorado, a body corporate, priority 2018, published 2021).

T1 sequence (Q9XXK1 whole entry): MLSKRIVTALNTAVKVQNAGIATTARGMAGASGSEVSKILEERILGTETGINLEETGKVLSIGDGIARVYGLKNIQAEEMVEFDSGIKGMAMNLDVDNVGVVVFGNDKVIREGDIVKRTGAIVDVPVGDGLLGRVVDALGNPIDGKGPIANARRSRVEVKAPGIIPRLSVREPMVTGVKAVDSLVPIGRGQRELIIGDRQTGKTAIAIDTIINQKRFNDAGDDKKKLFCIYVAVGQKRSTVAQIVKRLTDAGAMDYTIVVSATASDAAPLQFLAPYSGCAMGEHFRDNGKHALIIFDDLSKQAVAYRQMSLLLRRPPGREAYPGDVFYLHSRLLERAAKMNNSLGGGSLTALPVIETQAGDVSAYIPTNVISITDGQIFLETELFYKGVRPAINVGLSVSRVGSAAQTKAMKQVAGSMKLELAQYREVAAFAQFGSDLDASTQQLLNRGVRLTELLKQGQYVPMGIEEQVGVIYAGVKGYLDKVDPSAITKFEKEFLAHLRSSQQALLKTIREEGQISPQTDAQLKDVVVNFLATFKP
T2 sequence (P25705 44-553): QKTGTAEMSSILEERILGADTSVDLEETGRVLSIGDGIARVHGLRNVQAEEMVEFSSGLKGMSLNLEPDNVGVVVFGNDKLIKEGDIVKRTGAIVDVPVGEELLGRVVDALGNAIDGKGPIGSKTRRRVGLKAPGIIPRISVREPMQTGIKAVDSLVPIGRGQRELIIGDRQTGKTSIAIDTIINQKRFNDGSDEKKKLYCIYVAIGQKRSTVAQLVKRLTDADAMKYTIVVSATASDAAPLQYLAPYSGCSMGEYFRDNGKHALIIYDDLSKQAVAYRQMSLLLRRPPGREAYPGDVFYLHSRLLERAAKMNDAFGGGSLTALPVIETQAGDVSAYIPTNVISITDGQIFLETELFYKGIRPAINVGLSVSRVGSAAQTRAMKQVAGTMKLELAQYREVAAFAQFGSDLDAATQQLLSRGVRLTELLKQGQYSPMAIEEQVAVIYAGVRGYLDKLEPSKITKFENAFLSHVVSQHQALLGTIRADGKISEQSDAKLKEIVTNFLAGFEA

In the case of `O=C(N[C@H]1COC(=O)[C@@H](NC(=O)c2cccc(O)c2O)COC(=O)[C@@H](NC(=O)c2cccc(O)c2O)COC1=O)c1cccc(O)c1O` [Ent, enterobactin], the “increase in 55Fe associated with ATP-1-IP” value at ATP-1 (whole worm lysates) is greater than 10 fold. Moreover, the “binding of ATP-1 to 55Fe” value on ATP-1 (worm lysates) is listed as “dramatically increased”. Also, the “growth of smf-3(-) mutants” value in series [1] (E. coli double mutant that cannot synthesize or utilize Ent) and in series [1] (iron chelator 2,2'-bipyridyl in media) was “rescued the growth of smf-3(-) mutants to adulthood” each time. For the same compound, in series [2] (iron-poor/DFO condition), the “effect on cellular iron level” value is “more pronounced”. For the same compound, the cellular iron level entry in series [2] (standard medium) is “modestly increased the cellular iron level”. Besides, on ATP5A1, the “level of 55Fe in ATP5A1-IP samples” value is on record as “increased”. The “mitochondrial iron level (RPA)” value in the series with HEK293T cells [3] is on record as “increased the mitochondrial iron level”. Further, the “iron-boosting effect of Ent (RPA)” value with HEK293T cells [3] (cells treated with ATP5A1 siRNA) is “not seen”. Further, the “entry into cells (CAS staining, siderophore level)” value in the series with HEK293T cells [4] is given as “can enter”.
